One assay addresses EDB fragment (Homo sapiens, UniProt P02751). Particulars: background, earlier work (U.S. Pat. No. 10,653,801); cited from earlier work.
Assay [1] has as its system HSC3 HNC xenograft. In words: Topical staining of exposed HSC3 HNC xenograft tumor, fluorescence imaging. In kind it is in vivo, mouse. Particulars: 1 drop of 40 μM applied topically, rinsed with PBS after 2 minutes. An excerpt:
(§1) FIGS. 3A and 3B provide images showing (A) fluorescence images of the organ tissues of the mice received IV injection of ZD2-S0456, showing ZD2-S0456 binding to HSC3 HNC xenograft. 1: kidney; 2: heart; 3: spleen; 4: brain; 5: muscle; 6: tumor; 7: liver; 8: lung. […] (B) Fluorescence image of mice bearing HSC3 HNC xenografts topically stained with PBS or ZD2-Cy5.5.
(§2) The specific staining of ZD2-S0456 to human HNC tumors comparing to normal tissues was investigated after intravenous injection of ZD2-S0456 in mouse xenograft models (FIG. 3). Mice were injected with 10 nmol/mouse ZD2-S0456 or PBS and euthanized 60 minutes post injection to collect tumor tissue and major organs. […] Furthermore, ZD2-S0456 can identify the tumor margin by topical staining of mouse xenograft tumors. The skin atop the HSC3 HNC xenograft tumor was removed to expose the tumor while the mouse was under anesthesia. Then 1 drop of 40 μM ZD2-Cy5.5 was topically applied to the tumor and surrounding tissues, which was rinsed with PBS after 2 minutes.

The test system of assay [2] is human breast cancer MDA-MB-231 TNBC xenograft. In words: Fluorescence imaging after intravenous injection in MDA-MB-231 TNBC xenograft mice. The format is in vivo. Particulars: 10 nmol/mouse IV, imaged 60 minutes post injection. As for the experimental part: FIG. 4 provide a fluorescence image of mouse bearing human breast cancer MDA-MB-231 TNBC xenograft after IV injection of ZD2-S0456, showing ZD2-S0456 staining to the tumor.
The specific staining of ZD2-S0456 to human TNBC tumors comparing to normal tissues was investigated after intravenous injection of ZD2-S0456 in mouse xenograft models (FIG. 4). Mouse were injected with 10 nmol/mouse ZD2-S0456 and imaged 60 minutes post injection.

Assay [3] deals with HSC3 HNC xenograft. The assay can be described thus: Fluorescence imaging of tumor and major organs after intravenous injection in HSC3 HNC xenograft mice. Particulars: 10 nmol/mouse IV, 60 minutes post injection, ex vivo tissue imaging; no signal after PBS.
Excerpt: as §1, §2

Where no end group is shown, it is not given here. S0456 = NIR dye, conjugated to the peptide N-terminus

Chain of EDB fragment (P02751 1271-1359 limits assumed): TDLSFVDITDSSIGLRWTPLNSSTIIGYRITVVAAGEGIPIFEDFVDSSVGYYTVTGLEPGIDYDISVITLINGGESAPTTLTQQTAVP

In the case of TVRTSAD [ZD2], the “Binding affinity to the EDB fragment” value with EDB fragment is “moderate binding affinity”. Turning to “ZD2-Cy5.5: ZD2 targeted fluorescence dye (Cy5.5) (TVRTSAD; also: Cy5.5 dye conjugated)”, in the assay on HSC3 HNC xenograft [1], the “Fluorescence signal on tumor vs surrounding tissues after topical staining” value is “strong fluorescence signal on the tumor but not the surrounding tissues”.

Consider “ZD2-S0456: ZD2 peptide with NIR dye S0456 conjugated to its N-terminus (S0456-TVRTSAD-OH)”, for which the “Fluorescence signal in the tumor compared to surrounding normal tissues” value in assay [2] was “stronger signal in the tumor”. In the assay with HSC3 HNC xenograft [3], the “Fluorescence signal in the tumor” value is “strong signal in the tumor”.

Values taken from patent US20240325574A1, “EXTRADOMAIN B FIBRONECTIN TARGETING PEPTIDES AND DERIVATIVES FOR CANCER IMAGING AND THERAPY” (MOLECULAR THERANOSTICS, LLC, priority 2023, published 2024).
